We go through seven compounds from ChEMBL document CHEMBL5465560, “Selectivity Literature for EUbOPEN Chemogenomic Library” (2024).

Assay [1] concerns the target PAS domain-containing serine/threonine-protein kinase (Homo sapiens) (UniProt Q96RG2). Kind of assay: Selectivity interaction (Upstate Kinase Profiler service (Millipore)) EUB0000056c PASK. Particulars: at 1 µM.
For assay [2], the target named is T1, Serine/threonine-protein kinase Nek9 (Homo sapiens) (UniProt Q8TD19).
T1 sequence (whole entry): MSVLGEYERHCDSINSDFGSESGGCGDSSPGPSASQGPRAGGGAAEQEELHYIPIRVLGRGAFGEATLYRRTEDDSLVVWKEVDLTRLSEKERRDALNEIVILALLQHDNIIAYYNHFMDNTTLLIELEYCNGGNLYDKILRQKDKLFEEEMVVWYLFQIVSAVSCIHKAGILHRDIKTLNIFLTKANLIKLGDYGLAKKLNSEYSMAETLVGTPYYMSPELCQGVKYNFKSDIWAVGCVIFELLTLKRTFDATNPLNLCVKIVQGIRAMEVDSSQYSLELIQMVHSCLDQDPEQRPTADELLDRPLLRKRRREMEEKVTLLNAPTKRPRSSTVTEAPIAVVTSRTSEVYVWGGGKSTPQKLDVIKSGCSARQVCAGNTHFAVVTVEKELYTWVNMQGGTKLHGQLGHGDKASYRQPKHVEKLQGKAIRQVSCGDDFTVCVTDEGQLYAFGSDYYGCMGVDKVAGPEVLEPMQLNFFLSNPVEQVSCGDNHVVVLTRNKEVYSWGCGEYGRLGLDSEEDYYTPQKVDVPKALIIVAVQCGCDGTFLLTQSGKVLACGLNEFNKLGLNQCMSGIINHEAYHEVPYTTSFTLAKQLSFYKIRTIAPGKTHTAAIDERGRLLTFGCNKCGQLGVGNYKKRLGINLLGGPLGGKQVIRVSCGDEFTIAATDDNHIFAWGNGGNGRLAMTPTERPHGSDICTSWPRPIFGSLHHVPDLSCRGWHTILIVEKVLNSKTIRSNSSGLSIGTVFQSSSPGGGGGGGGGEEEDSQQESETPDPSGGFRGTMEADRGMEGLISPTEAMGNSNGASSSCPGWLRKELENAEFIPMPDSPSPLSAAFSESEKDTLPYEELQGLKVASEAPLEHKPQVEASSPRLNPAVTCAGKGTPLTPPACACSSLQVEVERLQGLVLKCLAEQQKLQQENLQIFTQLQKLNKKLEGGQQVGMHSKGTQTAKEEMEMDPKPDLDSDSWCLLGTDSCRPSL
Briefly: Selectivity interaction (KinomeScan (DiscoverX)) EUB0001049a NEK9. Particulars: at 1 µM.

Assay [3] concerns the target Tyrosine-protein kinase ITK/TSK (Homo sapiens, UniProt Q08881). Briefly: Selectivity interaction (Kinase counterscreening (biochemical assay)) EUB0000604a ITK. For orientation: A counterscreen serves to expose hits that act by an unwanted route or on another target.
Assay [4] deals with E3 ubiquitin-protein ligase TRIM33 (Homo sapiens) (UniProt Q9UPN9). Kind of assay: Selectivity interaction (Bromodomain panel (DSF asssay)) EUB0000270b TRIM33.
For assay [5], the target named is Fibroblast growth factor receptor 4 (Homo sapiens, UniProt P22455). Briefly: Selectivity interaction (KinomeScan (DiscoverX)) EUB0000666a FGFR4. To be noted: at 10 µM.
For assay [6], the target named is Tyrosine-protein kinase CSK (Homo sapiens) (UniProt P41240). Briefly: Selectivity interaction (KinomeScan (DiscoverX)) EUB0000666a CSK. To be noted: at 10 µM.
For assay [7], the target named is T2, Dual specificity tyrosine-phosphorylation-regulated kinase 3 (Homo sapiens) (UniProt O43781).
T2 sequence (whole entry): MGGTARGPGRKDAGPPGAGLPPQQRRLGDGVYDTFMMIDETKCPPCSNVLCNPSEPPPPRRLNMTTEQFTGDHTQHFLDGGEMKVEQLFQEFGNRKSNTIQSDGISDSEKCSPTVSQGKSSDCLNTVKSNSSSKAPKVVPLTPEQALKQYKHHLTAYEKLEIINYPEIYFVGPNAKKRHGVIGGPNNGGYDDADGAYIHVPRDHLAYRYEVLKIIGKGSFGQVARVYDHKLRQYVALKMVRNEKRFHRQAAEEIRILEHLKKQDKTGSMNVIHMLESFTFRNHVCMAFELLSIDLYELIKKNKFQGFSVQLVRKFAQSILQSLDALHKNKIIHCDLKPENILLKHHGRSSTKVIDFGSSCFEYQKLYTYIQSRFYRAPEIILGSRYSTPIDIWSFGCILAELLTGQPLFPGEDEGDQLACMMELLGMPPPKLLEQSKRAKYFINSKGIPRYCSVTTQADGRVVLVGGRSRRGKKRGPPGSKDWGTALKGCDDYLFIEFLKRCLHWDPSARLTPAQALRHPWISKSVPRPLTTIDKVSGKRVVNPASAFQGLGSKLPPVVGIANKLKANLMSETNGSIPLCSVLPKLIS
Briefly: Selectivity interaction (SelectScreen profiling (Invitrogen)) EUB0000607a DYRK3. To be noted: at 2 µM.

Assay [8] deals with T3, Megakaryocyte-associated tyrosine-protein kinase (Homo sapiens) (UniProt P42679).
T3 sequence (whole entry): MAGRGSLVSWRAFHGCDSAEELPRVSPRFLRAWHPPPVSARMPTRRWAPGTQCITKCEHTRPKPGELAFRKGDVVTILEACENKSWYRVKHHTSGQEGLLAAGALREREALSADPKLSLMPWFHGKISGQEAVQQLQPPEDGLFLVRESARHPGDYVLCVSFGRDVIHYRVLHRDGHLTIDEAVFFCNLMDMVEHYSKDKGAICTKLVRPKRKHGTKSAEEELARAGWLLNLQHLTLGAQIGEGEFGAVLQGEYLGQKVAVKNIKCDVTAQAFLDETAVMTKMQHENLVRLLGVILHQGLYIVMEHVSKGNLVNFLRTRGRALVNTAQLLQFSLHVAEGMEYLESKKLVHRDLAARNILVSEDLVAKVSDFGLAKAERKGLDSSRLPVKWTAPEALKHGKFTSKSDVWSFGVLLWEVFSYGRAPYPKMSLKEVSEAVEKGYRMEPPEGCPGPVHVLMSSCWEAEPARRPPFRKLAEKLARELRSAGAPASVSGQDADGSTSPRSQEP
Briefly: Selectivity interaction (SelectScreen profiling (Invitrogen)) EUB0000607a MATK. Particulars: at 2 µM.

The target of assay [9] is Receptor-type tyrosine-protein kinase FLT3 (Homo sapiens) (UniProt P36888). Kind of assay: Selectivity interaction (KinomeScan (DiscoverX)) EUB0000311b FLT3. To be noted: at 1 µM.
Chain of Receptor-type tyrosine-protein kinase FLT3 (Homo sapiens) (P36888 whole entry): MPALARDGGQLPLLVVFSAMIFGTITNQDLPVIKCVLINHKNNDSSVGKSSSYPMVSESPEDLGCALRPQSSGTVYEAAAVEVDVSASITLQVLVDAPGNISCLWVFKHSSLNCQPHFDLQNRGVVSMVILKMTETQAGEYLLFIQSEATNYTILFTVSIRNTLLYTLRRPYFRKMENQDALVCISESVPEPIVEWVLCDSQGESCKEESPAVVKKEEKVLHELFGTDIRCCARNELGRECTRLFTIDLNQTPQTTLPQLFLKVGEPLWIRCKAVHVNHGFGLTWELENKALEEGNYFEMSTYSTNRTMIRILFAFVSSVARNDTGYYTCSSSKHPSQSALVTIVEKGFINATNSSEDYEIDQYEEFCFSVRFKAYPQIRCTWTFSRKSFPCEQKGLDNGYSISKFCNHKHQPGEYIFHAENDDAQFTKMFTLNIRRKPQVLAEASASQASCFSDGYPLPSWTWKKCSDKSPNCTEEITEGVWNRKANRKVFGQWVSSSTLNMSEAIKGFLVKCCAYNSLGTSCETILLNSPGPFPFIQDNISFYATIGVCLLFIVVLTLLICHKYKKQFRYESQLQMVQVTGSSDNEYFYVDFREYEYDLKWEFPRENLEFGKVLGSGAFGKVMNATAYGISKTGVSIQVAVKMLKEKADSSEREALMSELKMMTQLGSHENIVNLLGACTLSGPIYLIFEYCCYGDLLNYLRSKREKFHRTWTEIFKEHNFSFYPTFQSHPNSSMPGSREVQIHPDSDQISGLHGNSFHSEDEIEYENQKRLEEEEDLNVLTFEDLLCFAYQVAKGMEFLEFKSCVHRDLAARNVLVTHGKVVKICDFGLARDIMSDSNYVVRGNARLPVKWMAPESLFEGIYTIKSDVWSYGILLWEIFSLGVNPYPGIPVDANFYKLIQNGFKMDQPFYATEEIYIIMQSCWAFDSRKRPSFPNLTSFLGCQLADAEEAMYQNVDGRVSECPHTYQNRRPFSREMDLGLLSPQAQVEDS

Chain of E3 ubiquitin-protein ligase TRIM33 (Homo sapiens) (Q9UPN9 whole entry): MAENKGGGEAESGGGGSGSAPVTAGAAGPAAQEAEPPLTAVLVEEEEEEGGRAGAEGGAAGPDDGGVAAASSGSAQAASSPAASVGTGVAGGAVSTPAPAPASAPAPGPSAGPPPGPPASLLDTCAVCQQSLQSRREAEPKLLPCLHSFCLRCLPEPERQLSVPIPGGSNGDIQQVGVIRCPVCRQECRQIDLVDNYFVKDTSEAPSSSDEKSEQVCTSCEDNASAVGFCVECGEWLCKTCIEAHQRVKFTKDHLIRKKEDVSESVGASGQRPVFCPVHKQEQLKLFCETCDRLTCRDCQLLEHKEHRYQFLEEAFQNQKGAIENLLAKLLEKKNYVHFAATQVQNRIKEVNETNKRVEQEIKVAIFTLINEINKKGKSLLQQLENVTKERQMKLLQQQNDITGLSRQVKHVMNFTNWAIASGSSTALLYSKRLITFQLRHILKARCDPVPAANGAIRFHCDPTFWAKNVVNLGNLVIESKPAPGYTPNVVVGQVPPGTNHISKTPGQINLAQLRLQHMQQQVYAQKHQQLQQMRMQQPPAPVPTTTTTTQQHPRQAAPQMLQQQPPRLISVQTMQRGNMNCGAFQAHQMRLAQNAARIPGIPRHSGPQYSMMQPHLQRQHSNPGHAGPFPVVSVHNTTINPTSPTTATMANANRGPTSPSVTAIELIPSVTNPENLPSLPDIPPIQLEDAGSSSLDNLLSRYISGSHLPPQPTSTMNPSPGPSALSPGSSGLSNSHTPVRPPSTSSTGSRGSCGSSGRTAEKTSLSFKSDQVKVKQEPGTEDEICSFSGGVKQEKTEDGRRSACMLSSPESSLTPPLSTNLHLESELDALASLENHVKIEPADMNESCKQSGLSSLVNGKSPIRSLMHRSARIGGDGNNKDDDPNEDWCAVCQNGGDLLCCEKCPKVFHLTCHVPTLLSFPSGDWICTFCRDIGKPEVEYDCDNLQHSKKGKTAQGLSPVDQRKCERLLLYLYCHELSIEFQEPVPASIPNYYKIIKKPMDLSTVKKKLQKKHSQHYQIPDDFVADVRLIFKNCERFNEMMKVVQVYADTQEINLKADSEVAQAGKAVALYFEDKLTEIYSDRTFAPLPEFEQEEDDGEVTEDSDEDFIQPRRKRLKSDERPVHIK
Chain of Tyrosine-protein kinase ITK/TSK (Q08881 whole entry): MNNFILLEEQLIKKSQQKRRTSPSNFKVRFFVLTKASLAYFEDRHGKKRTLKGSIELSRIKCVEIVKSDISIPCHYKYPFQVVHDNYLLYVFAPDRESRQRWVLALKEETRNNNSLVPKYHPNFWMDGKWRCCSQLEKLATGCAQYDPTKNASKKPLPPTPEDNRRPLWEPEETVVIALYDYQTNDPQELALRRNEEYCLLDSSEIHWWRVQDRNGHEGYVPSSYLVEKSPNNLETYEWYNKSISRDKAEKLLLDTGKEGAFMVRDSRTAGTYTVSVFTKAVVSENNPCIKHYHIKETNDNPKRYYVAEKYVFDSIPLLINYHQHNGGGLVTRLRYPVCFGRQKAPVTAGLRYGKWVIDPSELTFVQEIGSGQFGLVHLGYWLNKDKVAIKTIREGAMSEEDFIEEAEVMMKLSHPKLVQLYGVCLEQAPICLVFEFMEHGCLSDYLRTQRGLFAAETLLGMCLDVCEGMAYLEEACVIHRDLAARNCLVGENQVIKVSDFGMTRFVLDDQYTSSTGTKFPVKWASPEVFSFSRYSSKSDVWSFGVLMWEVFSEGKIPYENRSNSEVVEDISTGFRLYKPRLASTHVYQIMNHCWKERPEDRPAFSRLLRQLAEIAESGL
Chain of PAS domain-containing serine/threonine-protein kinase (Homo sapiens) (Q96RG2 whole entry, the tested form may be a part): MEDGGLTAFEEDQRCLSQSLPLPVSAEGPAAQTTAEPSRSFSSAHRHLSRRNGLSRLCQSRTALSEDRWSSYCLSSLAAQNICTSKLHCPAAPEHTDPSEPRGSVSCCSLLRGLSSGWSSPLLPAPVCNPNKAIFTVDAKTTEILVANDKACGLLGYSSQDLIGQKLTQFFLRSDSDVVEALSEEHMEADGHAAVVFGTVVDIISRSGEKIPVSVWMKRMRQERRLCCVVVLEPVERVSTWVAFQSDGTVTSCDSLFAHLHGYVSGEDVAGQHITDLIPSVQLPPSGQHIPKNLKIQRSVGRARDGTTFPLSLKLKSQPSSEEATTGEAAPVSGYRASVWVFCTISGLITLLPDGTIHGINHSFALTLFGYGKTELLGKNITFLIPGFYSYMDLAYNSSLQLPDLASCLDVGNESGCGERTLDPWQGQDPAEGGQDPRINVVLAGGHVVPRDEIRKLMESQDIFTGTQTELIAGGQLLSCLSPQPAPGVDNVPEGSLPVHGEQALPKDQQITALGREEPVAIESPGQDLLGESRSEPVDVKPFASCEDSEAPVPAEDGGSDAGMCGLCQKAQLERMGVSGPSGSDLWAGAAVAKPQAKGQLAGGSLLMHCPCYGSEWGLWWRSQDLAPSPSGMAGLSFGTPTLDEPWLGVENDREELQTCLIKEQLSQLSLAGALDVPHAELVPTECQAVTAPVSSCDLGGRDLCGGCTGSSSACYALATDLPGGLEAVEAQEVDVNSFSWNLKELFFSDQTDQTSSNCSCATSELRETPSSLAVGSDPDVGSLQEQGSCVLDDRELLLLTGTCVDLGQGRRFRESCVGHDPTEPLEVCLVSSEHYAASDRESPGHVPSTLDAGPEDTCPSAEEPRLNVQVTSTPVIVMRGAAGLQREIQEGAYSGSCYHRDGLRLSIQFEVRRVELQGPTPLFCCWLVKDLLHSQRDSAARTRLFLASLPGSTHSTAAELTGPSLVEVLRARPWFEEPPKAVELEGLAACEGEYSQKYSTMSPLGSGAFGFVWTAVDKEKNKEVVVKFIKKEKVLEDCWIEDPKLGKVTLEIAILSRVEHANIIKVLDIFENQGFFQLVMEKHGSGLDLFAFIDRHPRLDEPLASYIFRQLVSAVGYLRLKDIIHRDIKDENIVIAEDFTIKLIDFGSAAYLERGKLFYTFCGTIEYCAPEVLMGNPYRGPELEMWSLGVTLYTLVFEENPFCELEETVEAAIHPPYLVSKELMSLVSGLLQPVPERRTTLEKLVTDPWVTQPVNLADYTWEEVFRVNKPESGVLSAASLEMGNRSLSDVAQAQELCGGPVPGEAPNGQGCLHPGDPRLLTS
Chain of Fibroblast growth factor receptor 4 (P22455 22-802 limits assumed): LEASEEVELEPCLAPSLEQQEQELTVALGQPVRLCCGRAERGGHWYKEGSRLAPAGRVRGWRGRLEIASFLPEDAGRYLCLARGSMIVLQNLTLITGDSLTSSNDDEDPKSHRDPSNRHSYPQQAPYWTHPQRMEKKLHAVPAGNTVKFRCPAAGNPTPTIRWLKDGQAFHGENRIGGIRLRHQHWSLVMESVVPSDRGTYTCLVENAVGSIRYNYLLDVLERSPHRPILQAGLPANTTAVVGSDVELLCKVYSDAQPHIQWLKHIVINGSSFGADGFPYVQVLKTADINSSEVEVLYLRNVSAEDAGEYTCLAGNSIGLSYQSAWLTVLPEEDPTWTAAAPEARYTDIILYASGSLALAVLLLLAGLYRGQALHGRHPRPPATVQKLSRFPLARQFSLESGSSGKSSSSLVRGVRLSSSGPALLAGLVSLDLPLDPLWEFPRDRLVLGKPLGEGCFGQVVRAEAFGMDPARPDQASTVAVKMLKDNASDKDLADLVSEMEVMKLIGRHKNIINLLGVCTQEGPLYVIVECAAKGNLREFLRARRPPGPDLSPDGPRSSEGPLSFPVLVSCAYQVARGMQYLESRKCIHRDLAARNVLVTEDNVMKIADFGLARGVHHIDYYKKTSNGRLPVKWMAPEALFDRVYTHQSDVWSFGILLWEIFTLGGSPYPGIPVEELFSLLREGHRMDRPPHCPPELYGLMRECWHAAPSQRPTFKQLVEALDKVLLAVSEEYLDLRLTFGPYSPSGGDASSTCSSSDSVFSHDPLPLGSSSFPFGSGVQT

As for `Cc1ccc(-c2ccc3c(ccc4sc5c(c43)NC[C@@H](C)NC5=O)n2)cn1`, the % of inhibition in assay [1] stood at 44%. In [2], `COc1cc(Nc2nc(C)cc(-c3cnn4nc(OC)ccc34)n2)cc(C(F)(F)F)c1` had a % of control of 94%.

As for `Cc1cnc(Nc2ccc(F)cc2Cl)nc1-c1c[nH]c(C(=O)N[C@H](CO)c2cccc(Cl)c2)c1`, the inhibition constant Ki in assay [3] is above 4 µM. As for `Cc1cc(CN)cc(C)c1-c1ncn(C)c1-c1cncn1C`, the dTM in assay [4] was -0.48 K. For the compound `O=C(NOC[C@H](O)CO)c1ccc(F)c(F)c1Nc1ccc(I)cc1F`, the values for the % of control in assay [5] and in assay [6] were 54% and 100%, respectively. As for `CNC(=O)Nc1ccc(-c2nc(N3CC4CCC(C3)O4)c3cnn(C4CCC5(CC4)OCCO5)c3n2)cc1`, the % of inhibition was -1% in [7] and 2% in assay [8]. For the compound `CCc1ccccc1C(=O)Nc1n[nH]c2c(C)c(F)c(C3C(C#N)=C(C)N(C)C(C)=C3C#N)cc12` [BAY-3827], the % of control in [9] was determined as 16%.

Usually Ki stands for the dissociation constant of the complex between target and ligand, obtained from inhibition or displacement. A low value points to tighter binding.
